Tested on: MDA-MB-231 multicell spheroids, viability
Test: Anticancer human tumor MDA-MB-231 cell line growth inhibition [PI3K];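 further: spheroids exposed to agents for seven days before reading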;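 on viability, T/C: percent of vehicle control luminescence with DMSO treated spheroids as 100%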
Conditions: for IC50: curve of first compound; for viability, T/C: stronger effect = lower value
Outline: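 Tumor cells were combined with HUVEC and MSCs into spheroids, then dosed with PI3K-inhibitor combinations over half-log ranges capped near clinical Cmax or 10 microM.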

[1] = second compound 0.0316 µM, first compound 0.0316 µM
[2] = second compound 0.0316 µM, first compound 0.1 µM
[3] = second compound 0.1 µM, first compound 0.0316 µM
[4] = second compound 0.1 µM, first compound 0.1 µM
[5] = second compound 0.316 µM, first compound 0.0316 µM
[6] = second compound 0.316 µM, first compound 0.1 µM
[7] = second compound 1 µM, first compound 0.0316 µM
[8] = second compound 1 µM, first compound 0.1 µM
[9] = second compound 3.16 µM, first compound 0.0316 µM
[10] = second compound 3.16 µM, first compound 0.1 µM
[11] = second compound 10 µM, first compound 0.0316 µM
[12] = second compound 10 µM, first compound 0.1 µM

CC(=O)c1c(C)c2cnc(Nc3ccc(N4CCNCC4)cn3)nc2n(C2CCCC2)c1=O + CC(Nc1ncnc2nc[nH]c12)c1cc2cccc(Cl)c2c(=O)n1-c1ccccc1
IC50 (second compound 0.0316 µM): > 0.1 µM | IC50 (second compound 0.1 µM): 0.0862 µM | IC50 (second compound 0.316 µM): 0.0753 µM | IC50 (second compound 1 µM): 0.0361 µM | IC50 (second compound 3.16 µM): 0.0114 µM | IC50 (second compound 10 µM): < 0.000316 µM | viability, T/C (second compound 0.0316 µM, first compound 0.000316 µM): 96.8% | viability, T/C (second compound 0.0316 µM, first compound 0.001 µM): 107% | viability, T/C (second compound 0.0316 µM, first compound 0.00316 µM): 92.6% | viability, T/C (second compound 0.0316 µM, first compound 0.01 µM): 90.6% | viability, T/C [1]: 72.8% | viability, T/C [2]: 53.2% | viability, T/C (second compound 0.1 µM, first compound 0.000316 µM): 98.8% | viability, T/C (second compound 0.1 µM, first compound 0.001 µM): 99.6% | viability, T/C (second compound 0.1 µM, first compound 0.00316 µM): 96.1% | viability, T/C (second compound 0.1 µM, first compound 0.01 µM): 80.5% | viability, T/C [3]: 71.3% | viability, T/C [4]: 46.5% | viability, T/C (second compound 0.316 µM, first compound 0.000316 µM): 86.8% | viability, T/C (second compound 0.316 µM, first compound 0.001 µM): 90% | viability, T/C (second compound 0.316 µM, first compound 0.00316 µM): 92.6% | viability, T/C (second compound 0.316 µM, first compound 0.01 µM): 83.5% | viability, T/C [5]: 66.6% | viability, T/C [6]: 44.6% | viability, T/C (second compound 1 µM, first compound 0.000316 µM): 79.2% | viability, T/C (second compound 1 µM, first compound 0.001 µM): 79.9% | viability, T/C (second compound 1 µM, first compound 0.00316 µM): 78.4% | viability, T/C (second compound 1 µM, first compound 0.01 µM): 65.1% | viability, T/C [7]: 52.9% | viability, T/C [8]: 36% | viability, T/C (second compound 3.16 µM, first compound 0.000316 µM): 62.5% | viability, T/C (second compound 3.16 µM, first compound 0.001 µM): 60.1% | viability, T/C (second compound 3.16 µM, first compound 0.00316 µM): 55.3% | viability, T/C (second compound 3.16 µM, first compound 0.01 µM): 51.1% | viability, T/C [9]: 43.1% | viability, T/C [10]: 29.6% | viability, T/C (second compound 10 µM, first compound 0.000316 µM): 42.6% | viability, T/C (second compound 10 µM, first compound 0.001 µM): 47.5% | viability, T/C (second compound 10 µM, first compound 0.00316 µM): 41.2% | viability, T/C (second compound 10 µM, first compound 0.01 µM): 38% | viability, T/C [11]: 36.1% | viability, T/C [12]: 19%

CCCS(=O)(=O)Nc1ccc(F)c(C(=O)c2c[nH]c3ncc(-c4ccc(Cl)cc4)cc23)c1F + CC(Nc1ncnc2nc[nH]c12)c1cc2cccc(Cl)c2c(=O)n1-c1ccccc1
IC50 (second compound 0.0316 µM): 5.6 µM | IC50 (second compound 0.1 µM): 5.14 µM | IC50 (second compound 0.316 µM): 4.67 µM | IC50 (second compound 1 µM): 3.79 µM | IC50 (second compound 3.16 µM): 1.93 µM | IC50 (second compound 10 µM): 0.372 µM | viability, T/C [1]: 114% | viability, T/C [2]: 109% | viability, T/C (second compound 0.0316 µM, first compound 0.316 µM): 102% | viability, T/C (second compound 0.0316 µM, first compound 1 µM): 89.8% | viability, T/C (second compound 0.0316 µM, first compound 3.16 µM): 66.8% | viability, T/C (second compound 0.0316 µM, first compound 10 µM): 32.7% | viability, T/C [3]: 113% | viability, T/C [4]: 108% | viability, T/C (second compound 0.1 µM, first compound 0.316 µM): 96.5% | viability, T/C (second compound 0.1 µM, first compound 1 µM): 82.8% | viability, T/C (second compound 0.1 µM, first compound 3.16 µM): 61.2% | viability, T/C (second compound 0.1 µM, first compound 10 µM): 34.5% | viability, T/C [5]: 85.8% | viability, T/C [6]: 95.3% | viability, T/C (second compound 0.316 µM, first compound 0.316 µM): 99.2% | viability, T/C (second compound 0.316 µM, first compound 1 µM): 79.4% | viability, T/C (second compound 0.316 µM, first compound 3.16 µM): 60.1% | viability, T/C (second compound 0.316 µM, first compound 10 µM): 32.3% | viability, T/C [7]: 95.5% | viability, T/C [8]: 82.9% | viability, T/C (second compound 1 µM, first compound 0.316 µM): 77.4% | viability, T/C (second compound 1 µM, first compound 1 µM): 71.9% | viability, T/C (second compound 1 µM, first compound 3.16 µM): 54.4% | viability, T/C (second compound 1 µM, first compound 10 µM): 30.5% | viability, T/C [9]: 68.4% | viability, T/C [10]: 70.9% | viability, T/C (second compound 3.16 µM, first compound 0.316 µM): 67.2% | viability, T/C (second compound 3.16 µM, first compound 1 µM): 56.5% | viability, T/C (second compound 3.16 µM, first compound 3.16 µM): 44.6% | viability, T/C (second compound 3.16 µM, first compound 10 µM): 26.4% | viability, T/C [11]: 52.8% | viability, T/C [12]: 55% | viability, T/C (second compound 10 µM, first compound 0.316 µM): 52.1% | viability, T/C (second compound 10 µM, first compound 1 µM): 43.3% | viability, T/C (second compound 10 µM, first compound 3.16 µM): 37.7% | viability, T/C (second compound 10 µM, first compound 10 µM): 23%
